Two compounds from ChEMBL document CHEMBL4613287, “Glycomimetic Based Approach toward Selective Carbonic Anhydrase Inhibitors” (ACS Med Chem Lett, 2020) can be followed below.

In test [1] the target is Carbonic anhydrase 1 (Homo sapiens, UniProt P00915). As to the kind of experiment: Inhibition of recombinant human carbonic anhydrase 1 preincubated with enzyme for 15 mins by phenol red dye based stopped flow CO2 hydration assay.
For test [2], the target named is Carbonic anhydrase 2 (Homo sapiens, UniProt P00918). As to the kind of experiment: Inhibition of recombinant human carbonic anhydrase 2 preincubated with enzyme for 15 mins by phenol red dye based stopped flow CO2 hydration assay.
The target in test [3] is Carbonic anhydrase 7 (Homo sapiens, UniProt P43166). As to the kind of experiment: Inhibition of recombinant human carbonic anhydrase 7 preincubated with enzyme for 15 mins by phenol red dye based stopped flow CO2 hydration assay.
Test [4] deals with Carbonic anhydrase 9 (Homo sapiens, UniProt Q16790). As to the kind of experiment: Inhibition of recombinant human carbonic anhydrase 9 preincubated with enzyme for 15 mins by phenol red dye based stopped flow CO2 hydration assay.
Test [5] has as its target Carbonic anhydrase 12 (Homo sapiens, UniProt O43570). As to the kind of experiment: Inhibition of recombinant human carbonic anhydrase 12 preincubated with enzyme for 15 mins by phenol red dye based stopped flow CO2 hydration assay.

Each structure is given as a SMILES string.

Carbonic anhydrase 12, sequence (O43570 whole entry): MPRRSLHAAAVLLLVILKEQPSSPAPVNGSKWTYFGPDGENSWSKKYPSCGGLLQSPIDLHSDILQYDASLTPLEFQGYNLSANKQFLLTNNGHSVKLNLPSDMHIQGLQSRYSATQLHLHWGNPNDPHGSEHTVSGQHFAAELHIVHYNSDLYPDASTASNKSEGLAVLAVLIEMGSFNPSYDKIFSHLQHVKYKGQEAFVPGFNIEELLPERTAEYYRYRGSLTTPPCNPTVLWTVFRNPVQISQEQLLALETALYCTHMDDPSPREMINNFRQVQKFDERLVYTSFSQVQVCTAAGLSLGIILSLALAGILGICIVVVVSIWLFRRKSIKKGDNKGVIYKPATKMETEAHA
Carbonic anhydrase 1, sequence (P00915 whole entry): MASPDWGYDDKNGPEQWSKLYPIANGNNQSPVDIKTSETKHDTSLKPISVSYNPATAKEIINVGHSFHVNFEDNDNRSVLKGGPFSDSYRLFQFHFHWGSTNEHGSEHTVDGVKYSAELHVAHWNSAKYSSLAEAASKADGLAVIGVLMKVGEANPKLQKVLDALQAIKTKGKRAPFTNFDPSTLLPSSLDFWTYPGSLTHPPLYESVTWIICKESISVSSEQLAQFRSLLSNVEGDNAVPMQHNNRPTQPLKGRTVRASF
Carbonic anhydrase 7, sequence (P43166 whole entry): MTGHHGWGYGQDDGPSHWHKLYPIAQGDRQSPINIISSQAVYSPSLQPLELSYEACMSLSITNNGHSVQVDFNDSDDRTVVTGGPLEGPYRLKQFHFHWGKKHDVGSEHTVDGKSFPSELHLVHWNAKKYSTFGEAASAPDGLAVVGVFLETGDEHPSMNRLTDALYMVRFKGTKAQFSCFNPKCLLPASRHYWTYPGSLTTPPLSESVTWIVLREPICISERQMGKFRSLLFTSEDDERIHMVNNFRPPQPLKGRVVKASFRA

The term Ki denotes a dissociation constant, usually derived from enzyme kinetics or from competition with a known ligand. As to `CC1(C)O[C@H]2[C@H](O)CN(CCCCCCn3cc(CNc4ccc(S(N)(=O)=O)cc4)nn3)C[C@H]2O1`, the Ki in test [1] worked out at 2880 nM; in test [2], 80.3 nM; in test [3], 7.4 nM; in test [4], 2980 nM; in test [5], 541 nM.

In the case of `CC1(C)O[C@H]2[C@H](O)[C@H]([C@H]3[C@H](O)[C@H]4OC[C@@H](O4)[C@H]3O)N(CCCCCCn3cc(CNc4ccc(S(N)(=O)=O)cc4)nn3)C[C@H]2O1`, the inhibitory constant (Ki) in test [1] was 956 nM; in test [2] it was 801 nM; in test [3], 31.2 nM; in test [4] it was 35.9 nM; in test [5] it was 770 nM.
